Results reported in patent publication US20230322785A1, “ADENOSINE A2A AND A2B RECEPTOR DUAL ANTAGONISTS FOR IMMUNO-ONCOLOGY” (Merck Sharp & Dohme LLC, priority 2020, published 2023).

Target: T1, human A2A adenosine receptor (Homo sapiens, UniProt P29274)
T1 construct: expressed in transfected cells; host or cells: HEK293 or CHO cells
Assay: A2A binding affinity, Method (B): scintillation proximity assay (SPA) with [3H]SCH58261
Conditions: membranes of HEK293 or CHO cells expressing the human receptor
From the text: Method (A) describes the procedure used to measure A2A binding affinity using radioligand binding. Method (B) describes the procedure used to measure A2A binding affinity using SPA technology. The method used to measure A2B binding affinity is also described below. The method used to determine the A2A IC50 value reported for each compound in the table is indicated next to the reported value. The A2B IC50 value measured using the A2B binding affinity assay is shown in the table next to the compound under the corresponding A2A value.
The A2A receptor affinity binding assay measured the amount of binding of a tritiated ligand with high affinity for the A2A adenosine receptor to membranes made from HEK293 or CHO cells recombinantly expressing the human A2A adenosine receptor, in the presence of varying concentrations of a compound of the invention. The data were generated using either filtration binding or a homogenous scintillation proximity assay (SPA).
Method (B): Measurement of A2A Binding Affinity Using SPA
Binding affinity using SPA was conducted as follows. Test compounds (50 nL) were dispensed into individual wells of a 384-well OptiPlate™ well (Perkin Elmer) by Echo® acoustic liquid transfer (Labcyte). 20 µL of 1.25 nM [^3H] SCH58261 ((7-(2-phenylethyl)-5-amino-2-(2-furyl)-pyrazolo-[4,3-e]-1,2,4-triazolo[1,5-c]pyrimidine)) in DPBS assay buffer (Dulbecco’s phosphate buffered saline without calcium and magnesium, ThermoFisher Scientific, Cat. No. A1285601) supplemented with 10 mM MgCl2 was added. A2A receptor-expressing membranes were incubated with 20 µg/mL adenosine deaminase (Roche, Cat. No. 10 102 105 001) for 15 min at room temperature. The receptor-expressing membranes were then combined with wheat germ agglutinin-coated yttrium silicate SPA beads (GE Healthcare, Cat. No. RPNQ0023) in a ratio of […] (w/w) and incubated for 30 min at room temperature. 30 µL of the membrane/bead mixture (0.25 µg and 25 µg per well respectively) were added to the 384-well OptiPlate™ well. To define total and non-specific binding, wells containing 1% DMSO or 1 µM CGS 15943 (Tocris Bioscience, Cat. No. 1699) respectively were also included in the experiment. The plate was incubated for 1 h at room temperature with agitation. The assay plate was then incubated for an h to allow the beads to settle before data were collected using a TopCount® (Perkin Elmer) scintillation counter. After normalization to total and non-specific binding, the percent effect at each compound concentration was calculated. The plot of percent effect versus the log of compound concentration was analyzed electronically using a 4-parameter logistic fit based on the Levenberg-Marquardt algorithm to generate IC50 values.

T1 sequence (P29274 whole entry): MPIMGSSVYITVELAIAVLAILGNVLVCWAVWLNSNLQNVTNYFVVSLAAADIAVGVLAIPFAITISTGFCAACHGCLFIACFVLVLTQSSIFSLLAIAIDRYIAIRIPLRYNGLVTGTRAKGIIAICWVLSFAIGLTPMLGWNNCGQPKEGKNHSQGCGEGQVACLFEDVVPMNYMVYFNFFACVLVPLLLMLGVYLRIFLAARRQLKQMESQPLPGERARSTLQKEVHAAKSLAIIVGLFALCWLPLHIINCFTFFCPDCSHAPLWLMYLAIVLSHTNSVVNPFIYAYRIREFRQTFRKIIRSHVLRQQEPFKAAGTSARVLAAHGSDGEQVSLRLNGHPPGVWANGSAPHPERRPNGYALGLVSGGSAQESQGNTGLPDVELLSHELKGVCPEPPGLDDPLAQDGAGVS

Row | Structure (SMILES) | IC50 [nM]
1 | COc1cccc2c1nc(N)n1nc(CN[C@@H](C)C(F)(F)F)nc21 [Example 10.9] | 5.9
2 | C=CCN(Cc1ccc(OC(F)(F)F)cc1)Cc1nc2c3cccc(OC)c3nc(N)n2n1 [Entry 21.2] | 3.1
3 | COc1cccc2c1nc(N)n1nc(CC(=O)NCc3ccc(C(F)(F)F)cc3)nc21 [Example 4.4, 2-(5-amino-7-methoxy-[1,2,4]triazolo[1,5-c]quinazolin-2-y1)-N-(4-(trifluoromethyl)benzyl)acetamide] | 9.4
4 | COc1cccc2c1nc(N)n1nc(CN(Cc3ccc(-c4ccccn4)cc3)CC3CC3)nc21 [Example 16.13, 2-(((cyclopropylmethyl)(4-(pyridin-2-yl)benzyl)amino)methyl)-7-methoxy-[1,2,4]triazolo[1,5-c]quinazolin-5-amine] | 2.6
5 | COc1cccc2c1nc(N)n1nc(CN(Cc3ccc(OC(F)(F)F)cc3)CC3CC3)nc21 [Example 15.7, 2-(((cyclopropylmethyl)(4-(trifluoromethoxy)benzyl)amino)methyl)-7-methoxy-[1,2,4]triazolo[1,5-c]quinazolin-5-amine] | 3.9
6 | COc1cccc2c1nc(N)n1nc(CCNCc3ccc(C(F)(F)F)cc3)nc21 [Example 22.3, 7-methoxy-2-(2-((4-(trifluoromethyl)benzyl)amino)ethyl)-[1,2,4]triazolo[1,5-c]quinazolin-5-amine] | 16.7
7 | COc1cccc2c1nc(N)n1nc(CN[C@H](C)C3CC3)nc21 [Example 7.8, (R)-2-(((1-cyclopropylethyl)amino)methyl)-7-methoxy-[1,2,4]triazolo[1,5-c]quinazolin-5-amine] | 12
8 | CCCN(Cc1ccc(C(F)(F)F)cc1)Cc1nc2c3cccc(OC)c3nc(N)n2n1 [Example 15.3, 7-methoxy-2-((propyl(4-(trifluoromethyl)benzyl)amino)methyl)-[1,2,4]triazolo[1,5-c]quinazolin-5-amine] | 2.3
9 | COc1cccc2c1nc(N)n1nc(CN(Cc3ccc(OC(C)C)nc3)CC3CC3)nc21 [Example 16.7, 2-(((cyclopropylmethyl)((6-isopropoxypyridin-3-yl)methyl)amino)methyl)-7-methoxy-[1,2,4]triazolo[1,5-c]quinazolin-5-amine] | 13.5
10 | CCN(Cc1ccc(C(F)(F)F)cc1)Cc1nc2c3cccc(OC)c3nc(N)n2n1 [Example 15.1, 2-((ethyl(4-(trifluoromethyl)benzyl)amino)methyl)-7-methoxy-[1,2,4]triazolo[1,5-c]quinazolin-5-amine] | 3.2
11 | COc1cccc2c1nc(N)n1nc(CN(Cc3ccc(C(F)(F)F)cc3)C3CC3)nc21 [Example 8.9, 2-((cyclopropyl(4-(trifluoromethyl)benzyl)amino)methyl)-7-methoxy-[1,2,4]triazolo[1,5-c]quinazolin-5-amine] | 2.5
12 | COc1cccc2c1nc(N)n1nc(CN(Cc3ccc(Br)cc3)CC3CC3)nc21 [Example 15.17, 2-(((4-bromobenzyl)(cyclopropylmethyl)amino)methyl)-7-methoxy-[1,2,4]triazolo[1,5-c]quinazolin-5-amine] | 3.2
13 | COc1cccc2c1nc(N)n1nc(CC(=O)N[C@@H]3CCOc4cc(F)ccc43)nc21 [Example 4.6, (R)-2-(5-amino-7-methoxy-[1,2,4]triazolo[1,5-c]quinazolin-2-yl)-N-(7-fluorochroman-4-yl)acetamide] | 2
14 | COc1cccc2c1nc(N)n1nc(CN(Cc3ccc(C(F)(F)F)cc3)S(C)(=O)=O)nc21 [Example 19.2, N-((5-amino-7-methoxy-[1,2,4]triazolo[1,5-c]quinazolin-2-yl)methyl)-N-(4-(trifluoromethyl)benzyl)methanesulfonamide] | 7.5
15 | COc1cccc2c1nc(N)n1nc(CC(=O)NCc3cccnc3)nc21 [Example 4.3, 2-(5-amino-7-methoxy-[1,2,4]triazolo[1,5-c]quinazolin-2-yl)-N-(pyridin-3-ylmethyl)acetamide] | 44.3
16 | COc1cccc2c1nc(N)n1nc(CNCC3CCN(c4ncc(F)cn4)CC3)nc21 [Example 14.3, 2-((((1-(5-fluoropyrimidin-2-yl)piperidin-4-yl)methyl)amino)methyl)-7-methoxy-[1,2,4]triazolo[1,5-c]quinazolin-5-amine] | 10

Row | Structure (SMILES) | IC50 [nM]
17 | COc1cccc2c1nc(N)n1nc(CCN[C@H](C)C(F)(F)F)nc21 [Example 23.4, (R)-7-methoxy-2-(2-((1,1,1-trifluoropropan-2-yl)amino)ethyl)-[1,2,4]triazolo[1,5-c]quinazolin-5-amine] | 5.8
18 | COc1cccc2c1nc(N)n1nc(CN(Cc3ccc(C(F)(F)F)nc3)CC3CC3)nc21 [Example 16.8, 2-(((cyclopropylmethyl)((6-(trifluoromethyl)pyridin-3-yl)methyl)amino)methyl)-7-methoxy-[1,2,4]triazolo[1,5-c]quinazolin-5-amine] | 24.1
19 | COc1cccc2c1nc(N)n1nc(CCCNCc3ccc(C(F)(F)F)cc3)nc21 [Example 10.6, 7-methoxy-2-(3-((4-(trifluoromethyl)benzyl)amino)propyl)-[1,2,4]triazolo[1,5-c]quinazolin-5-amine] | 8.7
20 | COc1cccc2c1nc(N)n1nc(CC(=O)N[C@H]3CCOc4cc(F)ccc43)nc21 [Example 4.7, (S)-2-(5-amino-7-methoxy-[1,2,4]triazolo[1,5-c]quinazolin-2-yl)-N-(7-fluorochroman-4-yl)acetamide] | 6.7
21 | COc1ccc(CCC(=O)NCc2nc3c4cccc(OC)c4nc(N)n3n2)cc1 [Example 2.4] | 7.5
22 | COc1cccc2c1nc(N)n1nc(CN(Cc3ncco3)CC3CC3)nc21 [Example 16.11, 2-(((cyclopropylmethyl)(oxazol-2-ylmethyl)amino)methyl)-7-methoxy-[1,2,4]triazolo[1,5-c]quinazolin-5-amine] | 9.4
23 | COc1cccc2c1nc(N)n1nc(CN(CC3CC3)C3CN(C(=O)OC(C)(C)C)C3)nc21 [Example 16.12, tert-butyl 3-(((5-amino-7-methoxy-[1,2,4]triazolo[1,5-c]quinazolin-2-yl)methyl)(cyclopropylmethyl)amino)azetidine-1-carboxylate] | 5.7
24 | COc1cccc2c1nc(N)n1nc(CNCc3ccc(Br)cc3)nc21 [Example 7.9, 2-(((4-bromobenzyl)amino)methyl)-7-methoxy-[1,2,4]triazolo[1,5-c]quinazolin-5-amine] | 5.4
25 | COc1cccc2c1nc(N)n1nc(CN(Cc3ccc(OC(F)(F)F)cc3)S(=O)(=O)C(F)(F)F)nc21 [Example 19.4, N-((5-amino-7-methoxy-[1,2,4]triazolo[1,5-c]quinazolin-2-yl)methyl)-1,1,1-trifluoro-N-(4-(trifluoromethoxy)benzyl)methanesulfonamide] | 50.4
26 | COCc1ccc(CNCc2nc3c4cccc(OC)c4nc(N)n3n2)cc1 [Example 7.7, 7-methoxy-2-(((4-(methoxymethyl)benzyl)amino)methyl)-[1,2,4]triazol[1,5-c]quinazolin-5-amine] | 2.2
27 | COc1cccc2c1nc(N)n1nc(CNC(=O)CCc3ccccc3)nc21 [Example 2.2, N-((5-amino-7-methoxy-[1,2,4]triazolo[1,5-c]quinazolin-2-yl)methyl)-3-phenylpropanamide] | 12.7
28 | COc1cccc2c1nc(N)n1nc(CNCc3ccc(C(F)(F)F)cc3)nc21 [Example 7.1, 7-methoxy-2-(((4-(trifluoromethyl)benzyl)amino)methyl)-[1,2,4]triazolo[1,5-c]quinazolin-5-amine] | 8.9
29 | COc1cccc2c1nc(N)n1nc(CN(Cc3ccc(F)c(F)c3F)CC3CC3)nc21 [Example 16.17, 2-(((cyclopropylmethyl)(2,3,4-trifluorobenzyl)amino)methyl)-7-methoxy-[1,2,4]triazolo[1,5-c]quinazolin-5-amine] | 4.8
30 | COCCN(Cc1ccc(C(F)(F)F)cc1)Cc1nc2c3cccc(OC)c3nc(N)n2n1 [Example 15.15, 7-methoxy-2-(((2-methoxyethyl)(4-(trifluoromethyl)benzyl)amino)methyl)-[1,2,4]triazolo[1,5-c]quinazolin-5-amine] | 6.6
31 | COc1cccc2c1nc(N)n1nc(CN[C@H](C)C(F)(F)F)nc21 [Example 10.8, (R)-7-methoxy-2-(((1,1,1-trifluoropropan-2-yl)amino)methyl)-[1,2,4]triazolo[1,5-c]quinazolin-5-amine] | 3.9
